Laboratory results taken from PubChem BioAssay AID212 (DTP/NCI, 2004).
Several values for one entry are separate records, joined by “and”; a condition that tells them apart may be missing. Equal entries are not always repeated. Records with an inconclusive call do not appear.

Test system: BDF1 mice, colon carcinoma 38 sc, T/C %
Experiment: NCI In Vivo Anticancer Drug Screen. Data for tumor model Colon Carcinoma 38 (subcutaneous) in B6D2F1 (BDF1) mice
Conditions: endpoint: median tumor weight (est.), higher = larger tumour
Summary of the method: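 Compound antitumor activity was assessed in mice carrying transplantable tumors. Survival or tumor size was recorded, and each value is the treated-group measurement divided by that of the vehicle-treated control group.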

COC1C(O)CC(OC2CC(Oc3cc4cc5c(c(O)c4c(O)c3C)C(=O)[C@@H](OC3CC(OC4CC(OC6CC(C)(O)C(OC(C)=O)C(C)O6)C(O)C(C)O4)C(O)C(C)O3)[C@H]([C@H](OC)C(=O)[C@@H](O)[C@@H](C)O)C5)OC(C)C2OC(C)=O)OC1C (some centres undefined)
T/C (dose: 0.04 mg/kg/injection, schedule: Q07DX002 (ip), vehicle: Klucel (hydroxypropylcellulose) (HPC)): 109 % of control and 105 % of control
T/C (dose: 0.08 mg/kg/injection, schedule: Q07DX002 (ip), vehicle: Klucel (hydroxypropylcellulose) (HPC)): 207 % of control and 76 % of control
T/C (dose: 0.16 mg/kg/injection, schedule: Q07DX002 (ip), vehicle: Klucel (hydroxypropylcellulose) (HPC)): 71 % of control

Nc1nc([Se])c2ncn(C3OC(CO)C(O)C3O)c2n1 (centres undefined)
T/C (dose: 4.0 mg/kg/injection, schedule: Q07DX002 (ip), vehicle: saline): 23 % of control
T/C (dose: 4.0 mg/kg/injection, schedule: Q07DX002 (ip), vehicle: suspension in saline): 124 % of control
T/C (dose: 4.0 mg/kg/injection, schedule: Q07DX003 (ip), vehicle: saline): 170 % of control
T/C (dose: 8.0 mg/kg/injection, schedule: Q07DX002 (ip), vehicle: saline): 14 % of control
T/C (dose: 8.0 mg/kg/injection, schedule: Q07DX002 (ip), vehicle: suspension in saline): 112 % of control and 94 % of control
T/C (dose: 8.0 mg/kg/injection, schedule: Q07DX003 (ip), vehicle: saline): 93 % of control
T/C (dose: 16.0 mg/kg/injection, schedule: Q07DX002 (ip), vehicle: saline): 20 % of control
T/C (dose: 16.0 mg/kg/injection, schedule: Q07DX002 (ip), vehicle: suspension in saline): 83 % of control and 86 % of control
T/C (dose: 16.0 mg/kg/injection, schedule: Q07DX003 (ip), vehicle: saline): 113 % of control
T/C (dose: 32.0 mg/kg/injection, schedule: Q07DX002 (ip), vehicle: saline): 18 % of control
T/C (dose: 32.0 mg/kg/injection, schedule: Q07DX003 (ip), vehicle: saline): 92 % of control
T/C (dose: 64.0 mg/kg/injection, schedule: Q07DX002 (ip), vehicle: saline): 20 % of control
T/C (dose: 64.0 mg/kg/injection, schedule: Q07DX002 (ip), vehicle: suspension in saline): 71 % of control and 92 % of control
T/C (dose: 64.0 mg/kg/injection, schedule: Q07DX003 (ip), vehicle: saline): 41 % of control

NS(=O)(=O)c1cc2c(cc1Cl)NC=NS2(=O)=O
T/C (dose: 75.0 mg/kg/injection, schedule: Q07DX002 (ip), vehicle: Klucel (hydroxypropylcellulose) (HPC)): 120 % of control
T/C (dose: 150.0 mg/kg/injection, schedule: Q07DX002 (ip), vehicle: Klucel (hydroxypropylcellulose) (HPC)): 113 % of control
T/C (dose: 300.0 mg/kg/injection, schedule: Q07DX002 (ip), vehicle: Klucel (hydroxypropylcellulose) (HPC)): 90 % of control
T/C (dose: 1200.0 mg/kg/injection, schedule: Q07DX002 (ip), vehicle: Klucel (hydroxypropylcellulose) (HPC)): 60 % of control

O=C(Nc1cccc2c(OC(=O)C(Cl)Cl)c(N=Nc3ccc(S(=O)(=O)Nc4nccs4)cc3)cc(N=Nc3ccc(S(=O)(=O)Nc4nccs4)cc3)c12)C(Cl)Cl (tested in a mixture with another compound)
T/C (dose: 6.25 mg/kg/injection, schedule: Q07DX002 (ip), vehicle: saline with Tween-80): 91 % of control
T/C (dose: 12.5 mg/kg/injection, schedule: Q07DX002 (ip), vehicle: saline with Tween-80): 100 % of control
T/C (dose: 25.0 mg/kg/injection, schedule: Q07DX002 (ip), vehicle: saline with Tween-80): 77 % of control
T/C (dose: 50.0 mg/kg/injection, schedule: Q07DX002 (ip), vehicle: saline with Tween-80): 92 % of control
T/C (dose: 100.0 mg/kg/injection, schedule: Q07DX002 (ip), vehicle: saline with Tween-80): 88 % of control

CC(=O)O[C@H]1C(=O)[C@@]2(C)[C@H]([C@H](OC(=O)c3ccccc3)[C@]3(O)C[C@H](OC(=O)[C@H](O)[C@@H](NC(=O)c4ccccc4)c4ccccc4)C(C)=C1C3(C)C)[C@]1(OC(C)=O)CO[C@@H]1C[C@@H]2O
T/C (dose: 7.5 mg/kg/injection, schedule: Q07DX002 (ip), vehicle: Klucel (hydroxypropylcellulose) (HPC)): 69 % of control
T/C (dose: 30.0 mg/kg/injection, schedule: Q07DX002 (ip), vehicle: Klucel (hydroxypropylcellulose) (HPC)): 88 % of control
T/C (dose: 60.0 mg/kg/injection, schedule: Q07DX002 (ip), vehicle: Klucel (hydroxypropylcellulose) (HPC)): 106 % of control

CC(C)=CCC/C(C)=C/COc1ccc(/C=C2/C(=O)N(O)[C@@H](C)C(=O)N2O)cc1
T/C (dose: 6.25 mg/kg/injection, schedule: Q07DX002 (ip), vehicle: saline): 262 % of control
T/C (dose: 12.5 mg/kg/injection, schedule: Q07DX002 (ip), vehicle: saline): 202 % of control
T/C (dose: 25.0 mg/kg/injection, schedule: Q07DX002 (ip), vehicle: saline): 178 % of control
T/C (dose: 50.0 mg/kg/injection, schedule: Q07DX002 (ip), vehicle: saline): 154 % of control
T/C (dose: 100.0 mg/kg/injection, schedule: Q07DX002 (ip), vehicle: saline): 154 % of control
